Square brackets hold non-standard residues; d marks the D form. Peptide text beside a SMILES is read from it. * marks the point of attachment. ξ: configuration not given here. Ile(3ξ) = CCC(C)[C@H](N)C(=O)O; Boc = CC(C)(C)OC(=O)*; OtBu = CC(C)(C)O*
System: tobacco bacterial rot (Pectobacterium carotovorum)
Assay: Suppression of tobacco bacterial rot
Assay type: in vivo, Pectobacterium carotovorum SCC1
Experimental: A tobacco or cucumber was sown in a plastic pot with a diameter of 10 cm×13 cm, and then, 12 pots were added in a yellow box. After seeding, 100 μL was inoculated to the cotyledons of cucumber or tobacco, in which first leaf was started to come out. The test compounds were dissolved in 20% methanol to make a stock solution, and then, the stock solution was diluted to the concentrations of 1, 10, and 100 ppm.
After 7 days, the pathogen of a plant bacterial rot (Pectobacterium carotovorum SCC1) was cultured in a TSA medium for 27 hours; and then, the cultured pathogen was sprayed in a concentration of 10^8 cfu/mL to the plant leaves, and cultured at 30° C. for 3 days. The plant anthracnose germ (Colletotrichum orbiculare) was cultured in a GBA (Green bean agar) medium to induce spores for about 2 to 3 weeks. The germ was sprayed in a concentration of 10^5 cell/mL and then cultured at 26° C. for 1 day. When fourth or fifth leaf came out, 200 μL of each of the test compounds was inoculated to third leaf. After 7 days, the pathogen of the plant bacterial rot was sprayed to the plant leaves in the concentration of 10^8 cfu/mL, and then cultured at 30° C. for 3 days.
The investigation was performed with naked eyes, and the lesion relative areas were investigated until 0 to 100% according to the shortness degrees of the bacterial rot. The anthracnose was investigated by counting the number of lesions occurred on the leaves.

Row | Compound | Lesion outbreak rate (Table 4, tobacco, 1 ppm) | Lesion outbreak rate (Table 4, tobacco, 10 ppm) | Lesion outbreak rate (Table 4, tobacco, 100 ppm) | also measured
1 | COC(=O)[C@H](CC(C)C)NC(=O)[C@H](CO)NC(=O)OC(C)(C)C [Compound 1] (Boc-Ser-Leu-OMe) |  |  |  | Lesion outbreak rate (Table 3, tobacco, 1 ppm): 73%; Lesion outbreak rate (Table 3, tobacco, 10 ppm): 10%; Lesion outbreak rate (Table 3, tobacco, 100 ppm): 57%
2 | COC(=O)[C@H](CC(C)C)NC(=O)[C@@H](N)CO [Compound 2] (H-Ser-Leu-OMe) |  |  |  | Lesion outbreak rate (Table 3, tobacco, 1 ppm): 60%; Lesion outbreak rate (Table 3, tobacco, 10 ppm): 39%; Lesion outbreak rate (Table 3, tobacco, 100 ppm): 41%
3 | COC(=O)CNC(=O)[C@H](CC(C)C)NC(=O)OC(C)(C)C [Compound 3] (Boc-Leu-Gly-OMe) |  |  |  | Lesion outbreak rate (Table 3, tobacco, 1 ppm): 13%; Lesion outbreak rate (Table 3, tobacco, 10 ppm): 68%; Lesion outbreak rate (Table 3, tobacco, 100 ppm): 80%
4 | CCOC(=O)[C@H](C)NC(=O)[C@H](CC(C)C)NC(=O)OC(C)(C)C [Compound 9] (Boc-Leu-Ala-OEt) |  |  |  | Lesion outbreak rate (Table 3, tobacco, 1 ppm): 90%; Lesion outbreak rate (Table 3, tobacco, 10 ppm): 53%; Lesion outbreak rate (Table 3, tobacco, 100 ppm): 82%
5 | CCOC(=O)[C@H](C)NC(=O)[C@@H](N)CC(C)C [Compound 10] (H-Leu-Ala-OEt) |  |  |  | Lesion outbreak rate (Table 3, tobacco, 1 ppm): 80%; Lesion outbreak rate (Table 3, tobacco, 10 ppm): 73%; Lesion outbreak rate (Table 3, tobacco, 100 ppm): 87%
6 | CC(C)C[C@H](N)C(=O)N[C@@H](C)C(=O)O [Compound 11] (H-Leu-Ala-OH) |  |  |  | Lesion outbreak rate (Table 3, tobacco, 1 ppm): 30%; Lesion outbreak rate (Table 3, tobacco, 10 ppm): 46%; Lesion outbreak rate (Table 3, tobacco, 100 ppm): 21%
7 | COC(=O)[C@H](C)NC(=O)[C@@H](NC(=O)OC(C)(C)C)C(C)C [Compound 12] (Boc-Val-Ala-OMe) |  |  |  | Lesion outbreak rate (Table 6, tobacco, 1 ppm): 45%; Lesion outbreak rate (Table 6, tobacco, 10 ppm): 33%; Lesion outbreak rate (Table 6, tobacco, 100 ppm): 25%
8 | COC(=O)[C@H](C)NC(=O)[C@H](C)NC(=O)OC(C)(C)C [Compound 13] (Boc-Ala-Ala-OMe) |  |  |  | Lesion outbreak rate (Table 6, tobacco, 1 ppm): 100%; Lesion outbreak rate (Table 6, tobacco, 10 ppm): 100%; Lesion outbreak rate (Table 6, tobacco, 100 ppm): 28%
9 | COC(=O)[C@H](Cc1c[nH]c2ccccc12)NC(=O)CNC(=O)OC(C)(C)C [Compound 16] (Boc-Gly-Trp-OMe) |  |  |  | Lesion outbreak rate (Table 6, tobacco, 1 ppm): 25%; Lesion outbreak rate (Table 6, tobacco, 10 ppm): 25%; Lesion outbreak rate (Table 6, tobacco, 100 ppm): 53%
10 | COC(=O)[C@H](Cc1c[nH]c2ccccc12)NC(=O)[C@@H](NC(=O)OC(C)(C)C)C(C)C [Compound 17] (Boc-Val-Trp-OMe) |  |  |  | Lesion outbreak rate (Table 6, tobacco, 1 ppm): 100%; Lesion outbreak rate (Table 6, tobacco, 10 ppm): 25%; Lesion outbreak rate (Table 6, tobacco, 100 ppm): 100%
11 | COC(=O)CNC(=O)CNC(=O)OC(C)(C)C [Compound 18] (Boc-Gly-Gly-OMe) |  |  |  | Lesion outbreak rate (Table 6, tobacco, 1 ppm): 80%; Lesion outbreak rate (Table 6, tobacco, 10 ppm): 75%; Lesion outbreak rate (Table 6, tobacco, 100 ppm): 68%
12 | COC(=O)[C@@H]1CCCN1C(=O)[C@H](Cc1ccccc1)NC(=O)OC(C)(C)C [Compound 19] (Boc-Phe-Pro-OMe) |  |  |  | Lesion outbreak rate (Table 6, tobacco, 1 ppm): 49%; Lesion outbreak rate (Table 6, tobacco, 10 ppm): 42%; Lesion outbreak rate (Table 6, tobacco, 100 ppm): 50%
13 | COC(=O)[C@@H]1CCCN1C(=O)[C@H](C)NC(=O)OC(C)(C)C [Compound 20] (Boc-Ala-Pro-OMe) |  |  |  | Lesion outbreak rate (Table 6, tobacco, 1 ppm): 56%; Lesion outbreak rate (Table 6, tobacco, 10 ppm): 63%; Lesion outbreak rate (Table 6, tobacco, 100 ppm): 51%
14 | COC(=O)[C@@H]1CCCN1C(=O)[C@@H](NC(=O)OC(C)(C)C)C(C)C [Compound 21] (Boc-Val-Pro-OMe) |  |  |  | Lesion outbreak rate (Table 6, tobacco, 1 ppm): 37%; Lesion outbreak rate (Table 6, tobacco, 10 ppm): 46%; Lesion outbreak rate (Table 6, tobacco, 100 ppm): 35%
15 | COC(=O)[C@@H]1CCCN1C(=O)[C@H](CC(C)C)NC(=O)OC(C)(C)C [Compound 22] (Boc-Leu-Pro-OMe) |  |  |  | Lesion outbreak rate (Table 6, tobacco, 1 ppm): 35%; Lesion outbreak rate (Table 6, tobacco, 10 ppm): 24%; Lesion outbreak rate (Table 6, tobacco, 100 ppm): 46%
16 | COC(=O)[C@@H]1CCCN1C(=O)[C@H](CCC(N)=O)NC(=O)OC(C)(C)C [Compound 23] (Boc-Gln-Pro-OMe) |  |  |  | Lesion outbreak rate (Table 6, tobacco, 1 ppm): 25%; Lesion outbreak rate (Table 6, tobacco, 10 ppm): 52%; Lesion outbreak rate (Table 6, tobacco, 100 ppm): 36%
17 | COC(=O)C1CCCN1C(=O)C(NC(=O)OC(C)(C)C)C(C)O (stereo not drawn) [Compound 24] (Boc-Thr-Pro-OMe; configuration not given here) | 13% | 65% | 33% | 
18 | COC(=O)[C@@H]1CCCN1C(=O)[C@H](CC(=O)OC(C)(C)C)NC(=O)OC(C)(C)C [Compound 25] (Boc-Asp(OtBu)-Pro-OMe) | 50% | 70% | 50% | 
19 | COC(=O)[C@@H]1CCCN1C(=O)[C@H](CC(N)=O)NC(=O)OC(C)(C)C [Compound 26] (Boc-Asn-Pro-OMe) | 63% | 23% | 60% | 
20 | COC(=O)[C@@H]1CCCN1C(=O)[C@@H]1CCCN1C(=O)OC(C)(C)C [Compound 27] (Boc-Pro-Pro-OMe) | 33% | 30% | 20% | 

Row | Compound | Lesion outbreak rate (Table 4, tobacco, 1 ppm) | Lesion outbreak rate (Table 4, tobacco, 10 ppm) | Lesion outbreak rate (Table 4, tobacco, 100 ppm) | also measured
21 | COC(=O)[C@@H]1CCCN1C(=O)[C@H](CCCCNC(=O)OC(C)(C)C)NC(=O)OC(C)(C)C [Compound 28] (Boc-Lys(Boc)-Pro-OMe) | 20% | 80% | 13% | 
22 | COC(=O)[C@@H]1CCCN1C(=O)[C@H](Cc1c[nH]cn1)NC(=O)OC(C)(C)C [Compound 29] | 63% | 43% | 63% | 
23 | COC(=O)[C@@H]1CCCN1C(=O)[C@H](CCC(=O)OC(C)(C)C)NC(=O)OC(C)(C)C [Compound 30] (Boc-Glu(OtBu)-Pro-OMe) | 23% | 36% | 13% | 
24 | COC(=O)[C@@H]1CCCN1C(=O)[C@H](CCCNC(=NC(=O)OCc1ccccc1)NC(=O)OCc1ccccc1)NC(=O)OC(C)(C)C [Compound 31] | 63% | 56% | 73% | 
25 | COC(=O)[C@@H]1CCCN1C(=O)[C@H](Cc1ccc(O)cc1)NC(=O)OC(C)(C)C [Compound 32] (Boc-Tyr-Pro-OMe) | 78% | 30% | 60% | 
26 | COC(=O)[C@H]1CCCN1C(=O)[C@@H]1CCCN1C(=O)OC(C)(C)C [Compound 33] (Boc-Pro-[dP]-OMe) | 80% | 38% | 18% | 
27 | CCC(C)[C@H](NC(=O)OC(C)(C)C)C(=O)N1CCC[C@@H]1C(=O)OC (some centres unmarked) [Compound 34] (Boc-[Ile(3ξ)]-[dP]-OMe) | 35% | 41% | 24% | 
28 | COC(=O)[C@H]1CCCN1C(=O)[C@H](Cc1ccc(O)cc1)NC(=O)OC(C)(C)C [Compound 35] (Boc-Tyr-[dP]-OMe) | 18% | 43% | 50% | 
29 | COC(=O)[C@H]1CCCN1C(=O)[C@H](CC(C)C)NC(=O)OC(C)(C)C [Compound 36] (Boc-Leu-[dP]-OMe) | 45% | 41% | 38% | 
30 | COC(=O)[C@H]1CCCN1C(=O)[C@H](CC(=O)OC(C)(C)C)NC(=O)OC(C)(C)C [Compound 37] (Boc-Asp(OtBu)-[dP]-OMe) | 5% | 5% | 43% | 
31 | COC(=O)[C@H]1CCCN1C(=O)CNC(=O)OC(C)(C)C [Compound 38] (Boc-Gly-[dP]-OMe) | 13% | 80% | 60% | 
32 | COC(=O)[C@H]1CCCN1C(=O)[C@H](CO)NC(=O)OC(C)(C)C [Compound 39] (Boc-Ser-[dP]-OMe) | 35% | 10% | 43% | 
33 | COC(=O)[C@H]1CCCN1C(=O)[C@H](CCSC)NC(=O)OC(C)(C)C [Compound 40] (Boc-Met-[dP]-OMe) | 8% | 45% | 43% | 
34 | COC(=O)[C@H]1CCCN1C(=O)[C@H](CC(N)=O)NC(=O)OC(C)(C)C [Compound 41] (Boc-Asn-[dP]-OMe) | 30% | 50% | 18% | 
35 | COC(=O)[C@H]1CCCN1C(=O)[C@H](Cc1ccccc1)NC(=O)OC(C)(C)C [Compound 42] (Boc-Phe-[dP]-OMe) | 43% | 60% | 45% | 
36 | COC(=O)[C@H]1CCCN1C(=O)[C@H](Cc1c[nH]c2ccccc12)NC(=O)OC(C)(C)C [Compound 43] (Boc-Trp-[dP]-OMe) | 35% | 45% | 31% | 
37 | COC(=O)[C@H]1CCCN1C(=O)[C@H](C)NC(=O)OC(C)(C)C [Compound 44] (Boc-Ala-[dP]-OMe) | 46% | 37% | 33% | 
38 | COC(=O)[C@H]1CCCN1C(=O)[C@H](CCC(N)=O)NC(=O)OC(C)(C)C [Compound 45] (Boc-Gln-[dP]-OMe) | 83% | 33% | 55% | 
39 | COC(=O)[C@H]1CCCN1C(=O)[C@H](Cc1c[nH]cn1)NC(=O)OC(C)(C)C [Compound 46] | 56% | 70% | 48% | 
40 | COC(=O)C1CCCN1C(=O)C(NC(=O)OC(C)(C)C)C(C)O (stereo not drawn) [Compound 47] (Boc-Thr-Pro-OMe; configuration not given here) |  |  |  | Lesion outbreak rate (Table 5, tobacco, 10 ppm): 0%; Lesion outbreak rate (Table 5, tobacco, 100 ppm): 50%

Reference: US20150119251A1, “AGRICULTURAL PLANT-PROTECTING AGENTS CONTAINING DIPEPTIDE DERIVATIVE AS ACTIVE INGREDIENT” (REPUBLIC OF KOREA (RURAL DEVELOPMENT ADMINISTRATION), priority 2012, published 2015)
